Assay results published in patent US20240327434A1, “FUSED TETRACYCLIC COMPOUND, PREPARATION METHOD THEREFOR AND APPLICATION THEREOF IN MEDICINE” (Jiangsu Hengrui Pharmaceuticals Co., Ltd., priority 2021, published 2024).

Tests used:
[1] = system: ERK phosphorylation of AGS cells; assay: Inhibition of ERK phosphorylation of AGS cells (HTRF method); type: cell-based; conditions: Homo sapiens, 1 h compound incubation, phosphorylated ERK/total ERK ratio, read-out: AGS/ IC50 (nM), inhibitory activity for ERK phosphorylation
Protocol: In the experiment, the inhibition effect of the compounds on ERK phosphorylation of the cells was detected, and the inhibition effect of the compounds disclosed herein on the KRAS target was evaluated according to the IC50.
AGS cells (Nanjing Cobioer, CBP60476) were cultured in RPMI1640 (Hyclone, SH30809.01) complete medium containing 10% fetal bovine serum. On the first day of the experiment, the AGS cells were seeded into a 96-well plate with complete medium at a density of 40,000 cells/well to form 190 μL of cell suspension per well. The plate was incubated overnight in a cell incubator at 37° C. with 5% CO2.
The next day, 10 μL of serially-diluted test compound prepared from the complete medium was added to each well. The final concentrations of the compound were 9 concentration points obtained by 5-fold serial dilution from 10 μM. A blank control containing 0.5% DMSO was set. The well plate was incubated in a cell incubator at 37° C. with 5% CO2 for 1 h. After completion of incubation, the 96-well cell culture plate was taken out, the medium was removed by pipetting, 200 μL PBS (Shanghai BasalMedia Technologies Co., Ltd., B320) was added to each well, and the cells were washed once. PBS was removed by pipetting, 50 μL of lysis buffer (Cisbio, 64KL1FDF) containing a blocking solution (blocking reagent, Cisbio, 64KB1AAC) was added to each well, and the well plate was lysed on a shaker for 40 min at room temperature with shaking. After lysis, the lysate was pipetted and mixed well, 16 μL of lysate was transferred to two HTRF 96-well assay plates (Cisbio, 66PL96100) per well, and then 4 μL of premixed phosphorylated ERK1/2 antibody solution (Cisbio, 64AERPEG) or 4 μL of premixed total ERK1/2 antibody solution (Cisbio, 64NRKPEG) was added to these two plates. The microplate was sealed with a sealing membrane, centrifuged for 1 min in a microplate centrifuge, and incubated overnight at room temperature in the dark. On the third day, the fluorescence values at an excitation wavelength of 337 nm and at emission wavelengths of 665 nm and 620 nm were read using an ENVISION multifunctional microplate reader (PerkinElmer, ENVISION).

GP2d cells = assay: Inhibition of 3D proliferation of GP2d cells (CellTiter-Glo 3D); type: cell-based; conditions: 120 h incubation, read-out: GP2d/ IC50 (nM), inhibitory activity for 3D proliferation
Protocol: (§1) The inhibition effect of the compounds disclosed herein on the KRAS target was evaluated by testing the 3D proliferation inhibition effect of the compounds disclosed herein on GP2d and AGS cells.
GP2d cells (Nanjing Cobioer, CBP60010) were cultured in a complete medium, namely DMEM/high glucose medium (Hyclone, SH30243.01) containing 10% fetal bovine serum (Corning, 35-076-CV). On the first day of the experiment, GP2d cells were seeded into a 96-well low adsorption plate (Corning, CLS7007-24EA) with complete medium at a density of 1,000 cells/well to form 90 μL of cell suspension per well. The plate was centrifuged at 2,000 rpm for 5 min at room temperature and then incubated overnight in a cell incubator at 37° C. with 5% CO2.
The next day, 10 μL of serially-diluted test compound prepared from the complete medium was added to each well. […] A blank control containing 0.5% DMSO was set. The well plate was incubated in a cell incubator at 37° C. with 5% CO2 for 120 h.

[2] = biological target: KRAS protein subtype G12D (Avi-KRAS-G12D) (Homo sapiens (Human), UniProt P01116, G12D); assay: SPR affinity for KRAS protein subtype G12D (Biacore 8K); type: binding; conditions: single-cycle kinetic mode, 1:1 model, read-out: G12D KD (unit mol/L)
Protocol: (§2) Biotinylated Avi-KRAS-WT or Avi-KRAS-G12D was diluted to 20 μg/mL with 1x HBS-P+(Cat. #BR1006-71) buffer containing 100 mM MgCl2, and then flowed through SA (Cat. #BR1005-31) biosensing chip channel 2 for 420 s to obtain a coupling level of approximately 5000-7000 RU. Then samples of small molecular compounds were injected for 120 s in an ascending order, and then were dissociated for 720 s. The experiment employed a single-cycle kinetic mode. Reaction signals were detected in real time using a Biacore 8K instrument to obtain association and dissociation curves. After the experiment ended, data analysis was performed using Biacore 8K evaluation software, and affinity data were obtained by performing data fitting using a 1:1 model.

[3] = biological target: KRAS protein subtype WT (Avi-KRAS-WT) (Homo sapiens (Human), UniProt P01116); assay: SPR affinity for KRAS protein subtype WT (Biacore 8K); type: binding; conditions: single-cycle kinetic mode, 1:1 model, read-out: WT KD (unit mol/L)
Protocol: as §2

AGS cells = assay: Inhibition of 3D proliferation of AGS cells (CellTiter-Glo 3D); type: cell-based; conditions: Homo sapiens, 120 h incubation, read-out: AGS/ IC50 (nM), inhibitory activity for 3D proliferation
Protocol: as §1
AGS cells (Nanjing Cobioer, CBP60476) were cultured in a complete medium, namely RPMI1640 medium (Hyclone, SH30809.01) containing 10% fetal bovine serum (Corning, 35-076-CV). On the first day of the experiment, the AGS cells were seeded into a 96-well low adsorption plate (Corning, CLS7007-24EA) at a density of 1,000 cells/well using complete medium to form 90 μL of cell suspension per well. The plate was centrifuged at 2,000 rpm for 5 min at room temperature and then incubated overnight in a cell incubator at 37° C. with 5% CO2.
The next day, 10 μL of serially-diluted test compound prepared from the complete medium was added to each well. […] On the seventh day, the 96-well cell culture plate was taken out, 50 μL CellTiter-Glo® 3D reagent (Promega, G9682) was added into each well, the plate was shaken at room temperature for 25 min, pipetted and mixed well, 50 μL of the solution was transferred into a white impermeable 96-well plate (PE, 6005290), and the luminescence signal values were read using a multifunctional microplate reader (PerkinElmer, ENVISION).

Chain of KRAS protein subtype WT (Avi-KRAS-WT) (P01116 whole entry): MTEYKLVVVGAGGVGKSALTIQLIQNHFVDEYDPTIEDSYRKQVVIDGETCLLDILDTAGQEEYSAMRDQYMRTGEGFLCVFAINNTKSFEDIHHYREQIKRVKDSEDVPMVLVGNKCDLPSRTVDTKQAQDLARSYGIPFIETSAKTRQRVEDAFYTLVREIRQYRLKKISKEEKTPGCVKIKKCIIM
Chain of KRAS protein subtype G12D (Avi-KRAS-G12D) (P01116 whole entry G12D): as the sequence (P01116 whole entry) above, with G12D counted along it

SMILES	IC50 [1] [nM]	IC50 (GP2d cells) [nM]	Kd [2] [nM]	Kd [3] [nM]	IC50 (AGS cells) [nM]
Oc1cc(-c2cc3nc(OC[C@@]45CCCN4C[C@H](F)C5)nc4c3c(n2)OCC2C3CCC(CN42)N3)c2c(F)cccc2c1 (mixture of isomers) [Diastereomeric (1:1) mixture of 1-p1 and 1-p2, 5-Fluoro-4-(12-(((2R,7aS)-2-fluorotetrahydro-1 H-pyrrolizin-7a(5H)-yl)methoxy)-5a,6,7,8,9,10-hexahydro-5H-4-oxa-3,10a,11,13,14-pentaaza-6,9-methanonaphtho[1,8-ab]heptalen-2-yl) naphthalen-2-ol]	94.1				
CCc1cccc2cc(O)cc(-c3nc4c5c(nc(OC[C@@]67CCCN6C[C@H](F)C7)nc5c3F)N3CC5CCC(N5)C3CO4)c12 (mixture of isomers) [Diastereomeric (1:1) mixture of 4-p1 and 4-p2, 5-Ethyl-4-(1-fluoro-12-(((2R,7aS)-2-fluorotetrahydro-1H-pyrrolizin-7a(5H)-yl)methoxy)-5a,6,7,8,9,10-hexahydro-5H-4-oxa-3,10a,11,13,14-pentaaza-6,9-methanonaphtho[1,8-ab]heptalen-2-yl)naphthalen-2-ol]	1.35				
CCc1cccc2cc(O)cc(-c3cc4c5c(nc(OC[C@@]67CCCN6C[C@H](F)C7)nc5c3F)N3CC5CCC(N5)C3CO4)c12 (mixture of isomers) [Diastereomeric (1:1) mixture of 11-p1 and 11-p2, 5-Ethyl-4-(1-fluoro-13-(((2R,7aS)-2-fluorotetrahydro-1H-pyrrolizin-7a(5H)-yl)methoxy)-5a,6,7,8,9,10-hexahydro-5H-6,9-epiminoazepino[2′,1′: 3,4][1,4]oxazepino[5,6,7-de]quinazolin-2-yl) naphthalen-2-ol]	15.6	62.5			
CCc1cccc2cc(O)cc(-c3cc4nc(OC[C@@]56CCCN5C[C@H](F)C6)nc5c4c(n3)OCC3C4CCC(CN53)N4)c12 (mixture of isomers) [Diastereomeric (1:1) mixture of 2-p1 and 2-p2, 5-Ethyl-4-(12-(((2R,7aS)-2-fluorotetrahydro-1H-pyrrolizin-7a(5H)-yl)methoxy)-5a,6,7,8,9,10-hexahydro-5H-4-oxa-3,10a,11,13,14-pentaaza-6,9-methanonaphtho[1,8-ab]heptalen-2-yl) naphthalen-2-ol]			0.4	32.4	
CCc1cccc2cc(O)cc(-c3nc4c5c(nc(OC[C@@]67CCCN6C[C@H](F)C7)nc5c3F)N3C[C@H]5CC[C@H](N5)[C@H]3CO4)c12 [Example 4-p1, 5-Ethyl-4-((5aS,6S,9R)-1-fluoro-12-(((2R,7aS)-2-fluorotetrahydro-1H-pyrrolizin-7a(5H)-yl)methoxy)-5a,6,7,8,9,10-hexahydro-5H-4-oxa-3,10a, 11,13,14-pentaaza-6,9-methanonaphtho[1,8-ab]heptalen-2-yl)naphthalen-2-ol]			0.14	3.4	
Oc1cc(Cl)c(C2CC2)c(-c2nc3c4c(nc(OC[C@@]56CCCN5C[C@H](F)C6)nc4c2F)N2C[C@H]4CC[C@H](N4)[C@H]2CO3)c1 [Example 6-p1, 3-Chloro-4-cyclopropyl-5-((5aS,6S,9R)-1-fluoro-12-(((2R,7aS)-2-fluorotetrahydro-1H-pyrrolizin-7a(5H)-yl)methoxy)-5a,6,7,8,9,10-hexahydro-5H-4-oxa-3,10a,11,13,14-pentaaza-6,9-methanonaphtho[1,8-ab]heptalen-2-yl)phenol]			0.1	7	
Oc1cc(-c2nc3c4c(nc(OC[C@@]56CCCN5C[C@H](F)C6)nc4c2F)N2C[C@H]4CC[C@H](N4)[C@H]2CO3)c2c(F)c(F)ccc2c1 [Example 8-p1, 5,6-Difluoro-4-((5aS,6S,9R)-1-fluoro-12-(((2R,7aS)-2-fluorotetrahydro-1H-pyrrolizin-7 a(5H)-yl)methoxy)-5a,6,7,8,9,10-hexahydro-5H-4-oxa-3,10a,11,13,14-pentaaza-6,9-methanonaphtho[1,8-ab]heptalen-2-yl)naphthalen-2-ol]			0.1	3.8	
CCc1c(F)ccc2cc(O)cc(-c3nc4c5c(nc(OC[C@@]67CCCN6C[C@H](F)C7)nc5c3F)N3C[C@H]5CC[C@H](N5)[C@H]3CO4)c12 [Example 9-p1, 5-Ethyl-6-fluoro-4-((5aS,6S,9R)-1-fluoro-12-(((2R,7aS)-2-fluorotetrahydro-1H-pyrrolizin-7a(5H)-yl)methoxy)-5a,6,7,8,9,10-hexahydro-5H-4-oxa-3,10a, 11,13,14-pentaaza-6,9-methanonaphtho[1,8-ab]heptalen-2-yl)naphthalen-2-ol]			0.03	1.54	
CCc1c(F)ccc2cc(O)cc(-c3nc4c5c(nc(OCC6(CN7C[C@H]8C[C@H]8[C@H]7CO)CC6)nc5c3F)N3C[C@H]5CC[C@H](N5)[C@H]3CO4)c12 [Example 22, 5-Ethyl-6-fluoro-4-((5aS,6S,9R)-1-fluoro-12-((1-(((1R,2S,5S)-2-(hydroxymethyl)-3-azabicyclo[3.1.0]hex-3-yl)methyl)cyclopropyl)methoxy)-5a,6,7,8,9,10-hexahydro-5H-4-oxa-3,10a, 11,13,14-pentaaza-6,9-methanonaphtho[1,8-ab]heptalen-2-yl)naphthalen-2-ol]	10.2	9.6			
CCc1c(F)ccc2cc(O)cc(-c3nc4c5c(nc(OCC6(CN7CC8CC8(CO)C7)CC6)nc5c3F)N3C[C@H]5CC[C@H](N5)[C@H]3CO4)c12 (stereo partly drawn) [Example 23, 5-Ethyl-6-fluoro-4-((5aS,6S,9R)-1-fluoro-12-((1-((1-(hydroxymethyl)-3-azabicyclo[3.1.0]hex-3-yl)methyl)cyclopropyl)methoxy)-5a,6,7,8,9,10-hexahydro-5H-4-oxa-3,10a, 11,13,14-pentaaza-6,9-methanonaphtho[1,8-ab]heptalen-2-yl)naphthalen-2-ol]	4	8.8			108
